Measured values reported in patent US20220331327A1, “THE USE OF PARAXANTHINE TO IMPROVE PERFORMANCE IN VIDEO GAMERS” (priority 2021, published 2022).

Key:
healthy subject = test: Video game Tetris, game performance measured by play time; assay type: in vivo, human; settings: 100 mg prior to playing Tetris; one subject
Source text: Each of the three games were separated by a one-week washout period. In Tetris, the player brings down blocks from the top of the screen. The player can move the blocks around, either left to right and/or you can rotate them. The blocks fall at a certain rate, but the player can make them fall faster if he/she is sure of the positioning. The game Tetris becomes more challenging the longer you play. It becomes faster the better the player performs. The player has to make the same decisions but under a higher level of pressure. Each time the player clears a line in Tetris, the player is awarded more points. Each time the pieces reach the top of the screen, the game is over. Game performance was measured by play time. The player was not allowed to press a button to increase the speed of the current piece's descent or cause the piece to drop and lock into place immediately, known as a “soft drop” and a “hard drop”, respectively.

[1] = test system: healthy men and women playing video games; test: Video game performance, Super Smash Brothers Ultimate; assay type: in vivo, human; parameters: Damage Taken, Mean of visit / Damage Taken, Mean ± SD: unit not given here; settings: 200 mg daily; for Damage Taken, Mean ± SD / Falls (Deaths), Mean ± SD / Hit Percentage, Mean ± SD / Damage Taken, Mean of visit / Falls (Deaths), Mean of visit / Hit Percentage, Mean of visit: n = 5; for Damage Taken, Mean of visit / Falls (Deaths), Mean of visit / Hit Percentage, Mean of visit: mean of 20-120 min; for Damage Taken, Δ Baseline / Falls (Deaths), Δ Baseline: versus baseline; for Damage Taken, Δ PLA / Falls (Deaths), Δ PLA: versus placebo
Procedure: The effectiveness of study-products (paraxanthine and placebo) was assessed by measuring in-game performance, cognition during gaming (Stroop Test) and mood status during gaming (Profile of Mood States (POMS)). All study participants played the game Super Smash Brothers Ultimate (Nintendo, Release date: Dec. 7, 2018). Each study participant arrived, completed all necessary testing and began playing the game. Game consoles and controllers were available, but if participants wanted to bring their own controller, they were allowed to do so. The game was be set to the same level and strategy for each player. During each session, study participants played the game for 60 minutes and took a break to complete the Stroop Test and POMS. Participants then played the game for an additional 60 minutes before completing their third tests. […]

[2] = gaming between 100 and 120 minutes of play

Cn1c(=O)[nH]c2ncn(C)c2c1=O [Paraxanthine, paraxanthine]
gaming performance (play time), effect in words (healthy subject): increased gaming performance compared to placebo, and compared to caffeine intake
Damage Taken, Mean ± SD ([1]; 3 weeks, 20 min): 870.00 ± 301.09
Falls (Deaths), Mean ± SD ([1]; 3 weeks, 20 min): 5.75 ± 2.63
Hit Percentage, Mean ± SD ([1]; 3 weeks, 20 min): 37.75 ± 9.64
Damage Taken, Mean ± SD ([1]; 3 weeks, 40 min): 1103.00 ± 253.95
Falls (Deaths), Mean ± SD ([1]; 3 weeks, 40 min): 8 ± 3.67
Hit Percentage, Mean ± SD ([1]; 3 weeks, 40 min): 35.8 ± 8.93
Damage Taken, Mean ± SD ([1]; 3 weeks, 60 min): 987.25 ± 396.60
Falls (Deaths), Mean ± SD ([1]; 3 weeks, 60 min): 7 ± 3.83
Hit Percentage, Mean ± SD ([1]; 3 weeks, 60 min): 38 ± 5.72
Damage Taken, Mean ± SD ([1]; 3 weeks, 80 min): 1351.80 ± 341.08
Falls (Deaths), Mean ± SD ([1]; 3 weeks, 80 min): 9 ± 3.32
Hit Percentage, Mean ± SD ([1]; 3 weeks, 80 min): 35.2 ± 8.17
Damage Taken, Mean ± SD ([1]; 3 weeks, 100 min): 1619.60 ± 383.27
Falls (Deaths), Mean ± SD ([1]; 3 weeks, 100 min): 11.4 ± 4.04
Hit Percentage, Mean ± SD ([1]; 3 weeks, 100 min): 29.4 ± 8.08
Damage Taken, Mean ± SD ([1]; 3 weeks, 120 min): 2006.60 ± 376.34
Falls (Deaths), Mean ± SD ([1]; 3 weeks, 120 min): 13 ± 3.74
Hit Percentage, Mean ± SD ([1]; 3 weeks, 120 min): 26.4 ± 3.51
Damage Taken, Mean of visit ([1]; 3 weeks): 1,323.0
Falls (Deaths), Mean of visit ([1]; 3 weeks): 9.0
Hit Percentage, Mean of visit ([1]; 3 weeks): 33.8
Damage Taken, Mean ± SD ([1]; 6 weeks, 20 min): 723.62 ± 457.07
Falls (Deaths), Mean ± SD ([1]; 6 weeks, 20 min): 5.2 ± 1.92
Hit Percentage, Mean ± SD ([1]; 6 weeks, 20 min): 28.09 ± 16.43
Damage Taken, Mean ± SD ([1]; 6 weeks, 40 min): 1077.40 ± 258.42
Falls (Deaths), Mean ± SD ([1]; 6 weeks, 40 min): 8 ± 2.74
Hit Percentage, Mean ± SD ([1]; 6 weeks, 40 min): 42.2 ± 12.46
Damage Taken, Mean ± SD ([1]; 6 weeks, 60 min): 1182.80 ± 317.56
Falls (Deaths), Mean ± SD ([1]; 6 weeks, 60 min): 7.4 ± 2.7
Hit Percentage, Mean ± SD ([1]; 6 weeks, 60 min): 39.4 ± 6.88
Damage Taken, Mean ± SD ([1]; 6 weeks, 80 min): 1425.80 ± 173.33
Falls (Deaths), Mean ± SD ([1]; 6 weeks, 80 min): 10 ± 2.55
Hit Percentage, Mean ± SD ([1]; 6 weeks, 80 min): 33 ± 5.43
Damage Taken, Mean ± SD ([1]; 6 weeks, 100 min): 1697.60 ± 336.71
Falls (Deaths), Mean ± SD ([1]; 6 weeks, 100 min): 13.2 ± 2.59
Hit Percentage, Mean ± SD ([1]; 6 weeks, 100 min): 30.4 ± 4.98
Damage Taken, Mean ± SD ([1]; 6 weeks, 120 min): 1921.80 ± 379.30
Falls (Deaths), Mean ± SD ([1]; 6 weeks, 120 min): 14.2 ± 3.56
Hit Percentage, Mean ± SD ([1]; 6 weeks, 120 min): 27.2 ± 4.15
Damage Taken, Mean of visit ([1]; 6 weeks): 1,338.2
Falls (Deaths), Mean of visit ([1]; 6 weeks): 9.7
Hit Percentage, Mean of visit ([1]; 6 weeks): 33.4
Damage Taken, Mean ± SD ([1]; Baseline visit, 20 min): 981.20 ± 457.06
Falls (Deaths), Mean ± SD ([1]; Baseline visit, 20 min): 7 ± 3.54
Hit Percentage, Mean ± SD ([1]; Baseline visit, 20 min): 36.6 ± 11.13
Damage Taken, Mean ± SD ([1]; Baseline visit, 40 min): 1306.75 ± 553.65
Falls (Deaths), Mean ± SD ([1]; Baseline visit, 40 min): 10.5 ± 5.26
Hit Percentage, Mean ± SD ([1]; Baseline visit, 40 min): 30.25 ± 11.15
Damage Taken, Mean ± SD ([1]; Baseline visit, 60 min): 1207.60 ± 425.74
Falls (Deaths), Mean ± SD ([1]; Baseline visit, 60 min): 8 ± 3.39
Hit Percentage, Mean ± SD ([1]; Baseline visit, 60 min): 34.6 ± 9.92
Damage Taken, Mean ± SD ([1]; Baseline visit, 80 min): 1527.80 ± 541.49
Falls (Deaths), Mean ± SD ([1]; Baseline visit, 80 min): 10.8 ± 4.97
Hit Percentage, Mean ± SD ([1]; Baseline visit, 80 min): 34.2 ± 8.23
Damage Taken, Mean ± SD ([1]; Baseline visit, 100 min): 1647.20 ± 359.67
Falls (Deaths), Mean ± SD ([1]; Baseline visit, 100 min): 11 ± 3.08
Hit Percentage, Mean ± SD ([1]; Baseline visit, 100 min): 30.6 ± 5.98
Damage Taken, Mean ± SD ([1]; Baseline visit, 120 min): 2067.80 ± 803.18
Falls (Deaths), Mean ± SD ([1]; Baseline visit, 120 min): 16.6 ± 8.59
Hit Percentage, Mean ± SD ([1]; Baseline visit, 120 min): 24.4 ± 4.28
Damage Taken, Mean of visit ([1]; Baseline visit): 1,460.9
Falls (Deaths), Mean of visit ([1]; Baseline visit): 10.65
Hit Percentage, Mean of visit ([1]; Baseline visit): 31.7
Damage Taken, Δ Baseline ([1]; 3 weeks): −9.4%
Falls (Deaths), Δ Baseline ([1]; 3 weeks): −15.5%
Damage Taken, Δ PLA ([1]; 3 weeks): −9.5%
Falls (Deaths), Δ PLA ([1]; 3 weeks): −21.7%
Damage Taken, Δ Baseline ([1]; 6 weeks): −8.4%
Falls (Deaths), Δ Baseline ([1]; 6 weeks): −8.9%
Damage Taken, Δ PLA ([1]; 6 weeks): −14.0%
Falls (Deaths), Δ PLA ([1]; 6 weeks): −15.6%
reduction of own damage taken compared to baseline (prior to supplementation) ([1]; after 3 weeks): 9.4%
reduction of own damage taken compared to placebo ([1]; after 3 weeks): 9.5%
reduction of own deaths compared to baseline (prior to supplementation) ([1]; after 3 weeks): 15.5%
reduction of own deaths compared to placebo ([1]; after 3 weeks): 21.7%
improvement over placebo, damage taken, later stages of gaming [1, 2]: 30.9%
improvement over placebo, number of deaths, later stages of gaming [1, 2]: 34%
